Counter-ions that a name gives are not always drawn.
biological target: S1P1/EDG1 (Homo sapiens, UniProt P21453); test: S1P1 CRE-bla CHOK1 reporter assay (inhibition of Forskolin induced cAMP); format: cell-based; conditions: agonist activity range, S1P1 CRE-bla CHOK1 cells, 2 μM Forskolin; read-out: S1P1 ACTIVITY
Text: A mammalian expression plasmid containing S1P1/EDG1 cloned into pcDNA3.1 was purchased from Missouri S&T cDNA Resource Centre. The nucleotide and amino acid sequence of human S1P1/EDG1 are published in Hla and Maciag (J Biol Chem, 265(1990), 9308-9313). S1P1/pcDNA3.1 was transfected into the CRE-bla CHO K1 (Invitrogen) cell line, and stable single cell clones were selected using standard techniques. Expression of functional S1P1/EDG1 receptor was confirmed by cell surface FACS with a S1P1 antibody (R&D Systems, clone 218713) and S1P-mediated inhibition of Forskolin induced cAMP.
Cells were seeded into 384-well black wall/clear bottom plates at 10^4 cells/well/19.5 μl assay media (DMEM-phenol free, 0.5% charcoal/dextran stripped serum, 2 mM glutamine, 0.1 mM NEAA, 1 mM Na-Pyruvate, 25 mM Hepes) and incubated for 18 hrs at 37° C. in 5% CO2. Dose response curves (10-point) were generated in 10 mM Hepes, 0.1% Pluronic F127, in the presence of Forskolin. Cells were treated with 0.5 μl compound in the presence of 2 μM Forskolin for 4 hrs at 37° C. The FRET-based β-lactamase fluorescent substrate (LiveBLAzer™-FRET B/G Loading Kit CC4-AM; Invitrogen) was prepared according to manufacturer's directions, and incubated with cells for 2 hrs at room temperature. Plates were read at Ex:410/Em:458 and Ex:410/Em:522, and the response ratio determined. Data was analyzed by non-linear regression to determine the EC50 for inhibition of Forskolin induced cAMP.

Sequence of S1P1/EDG1 (P21453 whole entry): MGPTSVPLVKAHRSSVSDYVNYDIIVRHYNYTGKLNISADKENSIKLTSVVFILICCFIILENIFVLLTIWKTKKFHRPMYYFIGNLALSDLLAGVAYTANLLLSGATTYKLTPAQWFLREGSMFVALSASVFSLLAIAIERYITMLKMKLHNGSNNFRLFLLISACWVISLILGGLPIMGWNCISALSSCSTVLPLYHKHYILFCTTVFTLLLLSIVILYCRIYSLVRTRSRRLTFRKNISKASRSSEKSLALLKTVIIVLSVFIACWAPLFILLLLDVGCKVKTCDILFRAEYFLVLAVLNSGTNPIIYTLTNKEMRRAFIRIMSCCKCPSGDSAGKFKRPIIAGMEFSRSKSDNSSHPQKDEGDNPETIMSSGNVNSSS

| SMILES | EC50 [nM] |
| --- | --- |
| CCOc1ccc(Cc2nc(-c3cccc4c3CCC4N[C@H](C)CO)no2)cc1OCC (stereo partly drawn) [Compound 62] | > 5 |
| CC(C)Oc1ccc(-c2nc(-c3cccc4c3CCC[C@H]4NS(=O)(=O)CCN3CC[C@@H](O)C3)no2)cc1C#N [Compound 47] | 0.05 to 0.5 |
| CC(=O)N[C@H]1CCCc2c(-c3noc(-c4ccc(OC(C)C)c(C#N)c4)n3)cccc21 [Compound 22, (S)-N-(5-(5-(3-cyano-4-isopropoxyphenyl)-1,2,4-oxadiazol-3-yl)-1,2,3,4-tetrahydronaphthalen-1-yl)acetamide] | 0.05 to 0.5 |
| CC(C)Oc1ccc(-c2nc(-c3cccc4c3CCC[C@@H]4NCC(=O)O)no2)cc1C#N [Compound 53, (S)-2-((5-(5-(3-cyano-4-isopropoxyphenyl)-1,2,4-oxadiazol-3-yl)-1,2,3,4-tetrahydronaphthalen-1-yl)amino)acetic acid] | 0.05 to 0.5 |
| CC(C)Oc1ccc(-c2nc(-c3cccc4c3CCC[C@H]4NS(=O)(=O)CC(=O)N3CCC3)no2)cc1C#N [Compound 43] | < 0.05 |
| OCCN[C@@H]1CCc2c(-c3noc(-c4cc(-c5ccccc5)c(C(F)(F)F)s4)n3)cccc21 [Compound 67, (R)-2-(4-(5-(4-phenyl-5-(trifluoromethyl)thiophen-2-yl)-1,2,4-oxadiazol-3-yl)-2,3-dihydro-1H-inden-1-ylamino)ethanol] | > 5 |
| CC(C)Oc1ccc(-c2nc(-c3cccc4c3CCC[C@H]4NC(=O)N3CC[C@@H](N(C)C)C3)no2)cc1C#N [Compound 20, (R)-N-((R)-5-(5-(3-cyano-4-isopropoxyphenyl)-1,2,4-oxadiazol-3-yl)-1,2,3,4-tetrahydronaphthalen-1-yl)-3-(dimethylamino)pyrrolidine-1-carboxamide] | 0.5 to 5 |
| CC(C)Oc1ccc(-c2nc(-c3cccc4c3CCC[C@@H]4NS(=O)(=O)CC(N)=O)no2)cc1C#N [Compound 38] | < 0.05 |
| CCOc1ccc(Cc2nc(-c3cccc4c3CCC4NCCS(C)(=O)=O)no2)cc1OCC (stereo not drawn) [Compound 63, 4-(5-(3,4-diethoxybenzyl)-1,2,4-oxadiazol-3-yl)-N-(2-(methylsulfonyl)ethyl)-2,3-dihydro-1H-inden-1-amine] | > 5 |
| CC(C)Oc1ccc(-c2nc(-c3cccc4c3CCC[C@@H]4NS(N)(=O)=O)no2)cc1C#N [Compound 27, (S)-N-(5-(5-(3-cyano-4-isopropoxyphenyl)-1,2,4-oxadiazol-3-yl)-1,2,3,4-tetrahydronaphthalen-1-yl)sulfamide] | < 0.05 |
| CC(C)Oc1ccc(-c2nc(-c3cccc4c3CCC[C@@H]4NC(=O)N3CCOCC3)no2)cc1C#N [Compound 15, (S)-N-(5-(5-(3-cyano-4-isopropoxyphenyl)-1,2,4-oxadiazol-3-yl)-1,2,3,4-tetrahydronaphthalen-1-yl)morpholine-4-carboxamide] | 0.05 to 0.5 |
| CCOc1ccc(Cc2nc(-c3cccc4c3CCC4O)no2)cc1OCC (stereo not drawn) [Compound 60, 4-(5-(3,4-diethoxybenzyl)-1,2,4-oxadiazol-3-yl)-2,3-dihydro-1H-inden-1-ol] | > 5 |
| CC(C)Oc1ccc(-c2nc(-c3ccc4[nH]ccc4c3)no2)cc1C#N [Compound 68, 5-(3-(1H-indol-5-yl)-1,2,4-oxadiazol-5-yl)-2-isopropoxybenzonitrile] | 0.5 to 5 |
| CC(C)Oc1ccc(-c2ncc(-c3cccc4c3CCC4NCCO)o2)cc1C#N (stereo not drawn) [Compound 57, 5-(5-(1-(2-hydroxyethylamino)-2,3-dihydro-1H-inden-4-yl)oxazol-2-yl)-2-isopropoxybenzonitrile] | 0.5 to 5 |
| CC(C)Oc1ccc(-c2nc(-c3cccc4c3CCC[C@H]4NC(=O)N3CC(O)C3)no2)cc1C#N [Compound 7, (R)-N-(5-(5-(3-cyano-4-isopropoxyphenyl)-1,2,4-oxadiazol-3-yl)-1,2,3,4-tetrahydronaphthalen-1-yl)-3-hydroxyazetidine-1-carboxamide] | 0.05 to 0.5 |
| CC(C)Oc1ccc(-c2nc(-c3cccc4c3CCC[C@H]4NS(=O)(=O)C3CC3)no2)cc1C#N [Compound 30] | 0.05 to 0.5 |
| CC(C)Oc1ccc(-c2nc(-c3cccc4c3CCC[C@@H]4NCC(=O)N3CCCC3)no2)cc1C#N [Compound 55, (S)-2-isopropoxy-5-(3-(5-((2-oxo-2-(pyrrolidin-1-yl)ethyl)amino)-5,6,7,8-tetrahydronaphthalen-1-yl)-1,2,4-oxadiazol-5-yl)benzonitrile] | 0.05 to 0.5 |
| CC(C)Oc1ccc(-c2nc(-c3ccnc(CO)c3)no2)cc1C#N [Compound 71, 5-(3-(2-(hydroxymethyl)pyridin-4-yl)-1,2,4-oxadiazol-5-yl)-2-isopropoxy-benzonitrile] | 0.05 to 0.5 |

| SMILES | EC50 [nM] |
| --- | --- |
| CC(C)Oc1ccc(-c2nc(-c3cccc4c3CCC[C@@H]4NC(=O)N3CC(C(=O)O)C3)no2)cc1C#N [Compound 9] | 0.05 to 0.5 |
| CC(C)Oc1ccc(-c2nc(-c3cccc4c3CCC[C@@H]4NS(=O)(=O)C3CC3)no2)cc1C#N [Compound 31] | 0.5 to 5 |
| CCOc1ccc(Cc2nc(-c3cccc4c3CC[C@H]4N)no2)cc1OCC [Compound 65, (R)-4-(5-(3,4-diethoxybenzyl)-1,2,4-oxadiazol-3-yl)-2,3-dihydro-1H-inden-1-amine hydrochloride] | > 5 |
| CC(C)Oc1ccc(-c2nc(-c3cccc4c3CCC[C@@H]4NS(=O)(=O)CCN(C)C)no2)cc1C#N [Compound 45, (S)-N-(5-(5-(3-cyano-4-isopropoxyphenyl)-1,2,4-oxadiazol-3-yl)-1,2,3,4-tetrahydronaphthalen-1-yl)-2-(dimethylamino) ethanesulfonamide] | 0.5 to 5 |
| COCC(=O)N[C@H]1CCCc2c(-c3noc(-c4ccc(OC(C)C)c(C#N)c4)n3)cccc21 [Compound 24] | 0.05 to 0.5 |
| CC(=O)N[C@@H]1CCCc2c(-c3noc(-c4ccc(OC(C)C)c(C#N)c4)n3)cccc21 [Compound 21, (R)-N-(5-(5-(3-cyano-4-isopropoxyphenyl)-1,2,4-oxadiazol-3-yl)-1,2,3,4-tetrahydronaphthalen-1-yl)acetamide] | 0.05 to 0.5 |
| CC(C)Oc1ccc(-c2nc(-c3cccc4c3CCC[C@@H]4NS(=O)(=O)CC(=O)N3CCC3)no2)cc1C#N [Compound 42] | < 0.05 |
| CCOc1ccc(Cc2nc(-c3cccc4c3CCC4NCCO)no2)cc1OCC (stereo not drawn) [Compound 61, 2-((4-(5-(3,4-diethoxybenzyl)-1,2,4-oxadiazol-3-yl)-2,3-dihydro-1H-inden-1-yl)amino)ethanol] | > 5 |
| CC(C)Oc1ccc(-c2nc(-c3cccc4c3CCC[C@H]4NCCS(C)(=O)=O)no2)cc1C#N [Compound 48, (R)-2-isopropoxy-5-(3-(5-((2-(methylsulfonyl)ethyl)amino)-5,6,7,8-tetrahydronaphthalen-1-yl)-1,2,4-oxadiazol-5-yl)benzonitrile] | 0.05 to 0.5 |
| CC(C)Oc1ccc(-c2nc(-c3cccc4c3CCC[C@H]4NS(=O)(=O)CC(N)=O)no2)cc1C#N [Compound 39] | < 0.05 |
| CC(C)Oc1ccc(-c2ncc(-c3cccc4c3CCC4N[C@H](C)CO)o2)cc1C#N (stereo partly drawn) [Compound 58, 5-(5-(1-((R)-1-hydroxypropan-2-ylamino)-2,3-dihydro-1H-inden-4-yl)oxazol-2-yl)-2-isopropoxybenzonitrile] | > 5 |
| CC(C)Oc1ccc(-c2nc(-c3cccc4c3CCC[C@@H]4NS(=O)(=O)CC(=O)N(C)C)no2)cc1C#N [Compound 41, (S)-2-(N-(5-(5-(3-cyano-4-isopropoxyphenyl)-1,2,4-oxadiazol-3-yl)-1,2,3,4-tetrahydronaphthalen-1-yl)sulfamoyl)-N,N-dimethylacetamide] | < 0.05 |
| CC(C)Oc1ccc(-c2nc(-c3cccc4c3CCC[C@@H]4O)no2)cc1C#N [Compound 2, (S)-5-(3-(5-hydroxy-5,6,7,8-tetrahydronaphthalen-1-yl)-1,2,4-oxadiazol-5-yl)-2-isopropoxybenzonitrile] | < 0.05 |
| CC(C)Oc1ccc(-c2nc(-c3cccc4c3CCC[C@H]4NC(=O)N3CCOCC3)no2)cc1C#N [Compound 16] | 0.5 to 5 |
| CC(C)Oc1ccc(-c2nc(-c3cccc4c3CCC[C@@H]4NC(=O)N3CCCC3)no2)cc1C#N [Compound 12, (S)-N-(5-(5-(3-cyano-4-isopropoxyphenyl)-1,2,4-oxadiazol-3-yl)-1,2,3,4-tetrahydronaphthalen-1-yl)pyrrolidine-1-carboxamide] | 0.05 to 0.5 |
| CC(C)Oc1ccc(-c2nc(-c3cccc4c3CCC[C@H]4NS(=O)(=O)CCN(C)C)no2)cc1C#N [Compound 44, (R)-N-(5-(5-(3-cyano-4-isopropoxyphenyl)-1,2,4-oxadiazol-3-yl)-1,2,3,4-tetrahydronaphthalen-1-yl)-2-(dimethylamino)ethanesulfonamide] | 0.05 to 0.5 |
| CC(C)Oc1ccc(-c2nc(-c3cccc4c3CCC[C@H]4O)no2)cc1C#N [Compound 1, (R)-5-(3-(5-hydroxy-5,6,7,8-tetrahydronaphthalen-1-yl)-1,2,4-oxadiazol-5-yl)-2-isopropoxybenzonitrile] | 0.05 to 0.5 |
| CC(C)Oc1ccc(-c2nc(-c3cccc4c3CCC[C@H]4NS(N)(=O)=O)no2)cc1C#N [Compound 26, (R)-N-(5-(5-(3-cyano-4-isopropoxyphenyl)-1,2,4-oxadiazol-3-yl)-1,2,3,4-tetrahydronaphthalen-1-yl)sulfamide] | 0.05 to 0.5 |
